From US10961189B2, “Spiro-lactam NMDA receptor modulators and uses thereof” (Aptinyx Inc., priority 2016, dated 2021)
Like-named read-outs stand apart in the source and are kept apart here.

Columns and labels:
NMDAR2A = target: T1, NMDAR2A (Homo sapiens, UniProt Q12879); test: [3H]MK-801 binding in NMDAR expressing HEK cell membranes (facilitation of NMDAR activation); type: biochemical; details: 50 μM glutamate; for EC50: read-out: B: log EC50 (converted); for Emax: 0.25 h, read-out: A: % maximal [3H]MK-801 binding relative to 1 mM glycine
T1 construct: expressed in transfected cells; host or cells: HEK cells (membrane extract)
Description: (§1) Assays were conducted as described by Moskal et al., “GLYX-13: a monoclonal antibody-derived peptide that acts as an N-methyl-D-aspartate receptor modulator,” Neuropharmacology, 49, 1077-87, 2005. These studies were designed to determine if the test compounds act to facilitate NMDAR activation in NMDAR2A, NMDAR2B, NMDAR2C or NMDAR2D expressing HEK cell membranes as measured by increases in [^3H]MK-801 binding.
(§2) In the assay, 300 μg of NMDAR expressing HEK cell membrane extract protein was preincubated for 15 minutes at 25° C. in the presence of saturating concentrations of glutamate (50 μM) and varying concentrations of test compound (1×10^15M−1×10^−7M), or 1 mM glycine. Following the addition of 0.3 μCi of [^3H]MK-801 (22.5 Ci/mmol), reactions were again incubated for 15 minutes at 25° C. (nonequilibrium conditions). Bound and free [^3H]MK-801 were separated via rapid filtration using a Brandel apparatus.
(§3) In analyzing the data, the DPM (disintegrations per minute) of [^3H]MK-801 remaining on the filter were measured for each concentration of test compound or for 1 mM glycine. The DPM values for each concentration of a ligand (N=2) were averaged. The baseline value was determined from the best fit curve of the DPM values modeled using the GraphPad program and the log(agonist) vs. response (three parameters) algorithm was then subtracted from all points in the dataset. The % maximal [^3H]MK-801 binding was then calculated relative to that of 1 mM glycine: all baseline subtracted DPM values were divided by the average value for 1 mM glycine. The EC50 and % maximal activity were then obtained from the best fit curve of the % maximal [^3H]MK-801 binding data modelled using the GraphPad program and the log(agonist) vs. response (three parameters) algorithm.
(§4) The tables below summarize the results for the wild type NMDAR agonists NMDAR2A, NMDAR2B, NMDAR2C, and NMDAR2D, and whether the compound is not an agonist (−), is an agonist (+), or is a strong agonist (++), where column A is based on the % maximal [^3H]MK-801 binding relative to 1 mM glycine (−=0; <100%=+; and >100%=++); and column B is based on log EC50 values (0=−; ≥1×10^−9 M (e.g., −8)=+; and <1×10^−9 M (e.g., −10)=++).

NMDAR2B = target: T2, NMDAR2B (Homo sapiens, UniProt Q13224); test: as above; type: biochemical; details: 50 μM glutamate; for EC50: read-out: B: log EC50 (converted); for Emax: 0.25 h, read-out: A: % maximal [3H]MK-801 binding relative to 1 mM glycine
T2 construct: expressed in transfected cells; host or cells: HEK cells (membrane extract)
Description: as §1, §2, §3, §4

IV pharmacokinetics = type: in vivo, Sprague Dawley rats; details: rat, normal saline (* in 5% NMP, 5% Solutol HS, 90% normal saline); for AUC(0-t) / half-life / C0 / Vd: Sprague-Dawley, in vivo, iv; for C0: read-out: C0; for Vd: read-out: Vss; for CI: intravenous 2 mg/kg
Source text: The table below summarizes the results of the IV pharmacokinetics.

rats = test: positive emotional learning (PEL) test, 50-kHz ultrasonic vocalizations; type: in vivo, rat; details: PO, dose .1 mg/kg, one hour after administration
Description: Experiments were conducted as described in Burgdorf et al., “The effect of selective breeding for differential rates of 50-kHz ultrasonic vocalizations on emotional behavior in rats,” Devel. Psychobiol., 51:34-46 (2009). Rat 50-kHz ultrasonic vocalization (hedonic USVs) is a validated model for the study of positive affective state and is best elicited by rough-and-tumble play.
The PEL assay measures the acquisition of positive (hedonic) 50-kHz ultrasonic vocalizations (USVs) to a social stimulus, heterospecific rough and tumble play stimulation. Heterospecific rough-and-tumble play stimulation was administered by the experimenter's right hand. One hour after administration of test compound or vehicle negative control (0.5% sodium carboxymethyl cellulose in […] sterile saline), animals received 3 min of heterospecific rough-and-tumble play that consisted of alternating 15 sec blocks of heterospecific play and 15 sec of no-stimulation. High frequency ultrasonic vocalizations (USVs) were recorded and analyzed by sonogram with Avasoft SASlab Pro (Germany) as previously described by Burgdorf et al., “Positive emotional learning is regulated in the medial prefrontal cortex by GluN2B-containing NMDA receptors,” Neuroscience, 192:515-523 (2011). Frequency modulated 50-kHz USVs that occurred during each of the no-stimulation periods were quantified to measure PEL. Animals were not habituated to play stimulation before testing. Positive emotional learning was measured during the conditioned stimulus (CS) trials preceding the tickle unconditioned stimulus (UCS) trials. Animals received 15 second trials consisting of 6 CS and 6 UCS trials each (3 min total).
The table below summarizes the findings. As each experiment includes its own vehicle group, an example (typical) vehicle score is shown. Max effect (mean number of 50 kHz USVs per 15 seconds) is reported as ^: <6.0; *: 6-10.9; **: 11-16.9; ***: 17-22.

[1] = oral pharmacokinetics (plasma, brain, CSF); type: in vivo, Sprague Dawley rats; details: rat, per os 10 mg/kg; for Tmax: normal saline (* in 5% NMP, 5% Solutol HS, 90% normal saline)
Description: In another experiment, Sprague Dawley rats were dosed per os using a normal saline formulation containing 10 mg/kg of the compounds identified in the table below (except for the compounds marked with an asterisk (“*”) that were delivered in 5% NMP, 5% Solutol® HS and 90% normal saline formulation). Plasma, brain, and CSF samples were analyzed at various time points over a 24 hour period.

Sprague Dawley rats [2] = test: Porsolt forced swim test; type: in vivo, rat; details: 0.1 mg/kg
Description: A non-clinical in vivo pharmacology study (Porsolt assay) was performed to measure antidepressant-like effects. A negative control (0.5% sodium carboxymethyl cellulose in 0.9% sterile saline vehicle) and a positive control (fluoxetine) are shown for comparison against test compound. The study allowed for the evaluation of the effects of each compound on the Porsolt forced swim test as assessed by the rats' response (reduced floating time) during a 5-minute swimming test.
(§5) Male 2-3 month old Sprague Dawley rats were used (Harlan, Indianapolis, Ind.). Rats were housed in Lucite cages with aspen wood chip bedding, maintained on a 12:12 light:dark cycle (lights on at 5 AM), and given ad libitum access to Purina lab chow (USA) and tap water throughout the study.
The Porsolt forced swim test adapted for use in rats was performed as described by Burgdorf et al., (The long-lasting antidepressant effects of rapastinel (GLYX-13) are associated with a metaplasticity process in the medial prefrontal cortex and hippocampus. Neuroscience 308:202-211, 2015). Animals were placed in a 46 cm tall×20 cm in diameter clear glass tube filled to 30 cm with tap water (23±1° C.) for 15 min on the first day (habituation) and 5 min on the subsequent test day. Positive control fluoxetine was dosed 3 times (24 h, 5 h and 1 h) prior to testing. Animals were tested 1 h or 24 h post-dosing with the test compounds or vehicle. Animals received a 15 min habituation session 1 day before the 5 min test. A subset of compounds tested at 1 h post-dosing were retested at 1 wk post-dosing in the same sets of animals. Water was changed after every other animal. Animals were videotaped, and floating time as defined as the minimal amount of effort required to keep the animals head above water was scored offline by a blinded experimenter with high inter-rater reliability (Pearson's r>0.9).
Each compound tested at dose level shown. Significance vs. vehicle group for each experiment is marked. […] A compound marked “No” was not statistically significant from vehicle. Data was averaged for test compound and vehicle groups (N approximately 8 per group) and the percent reduction in floating for group treated with test compound relative to group treated with vehicle is shown.

Sprague Dawley rats [3] = test: Bennett model of mechanical analgesia (sciatic nerve chronic constriction, paw withdrawal threshold); type: in vivo, rat; details: 10 mg/kg PO;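 also: log paw withdrawal threshold scaled from vehicle group mean (0%) to naive 15 g value (100%)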
Description: The Bennett model of mechanical analgesia is used to assess the analgesic effects of compounds as measured by paw withdrawal threshold. Bennett GJ, Xie YK, “A peripheral mononeuropathy in rat that produces disorders of pain sensation like those seen in man,” Pain 33:87-107, 1988. […] Vehicle animals receive the surgery and then receive vehicle rather than test compound. Animals were tested 1 hr, 24 h and 1 wk post-test compound or vehicle administration.
as §5, with “used. Harlan was the supplier for all studies.” for “used (Harlan, Indianapolis, Ind.).”
Rats were anesthetized using inhaled isoflurane (2.5%). Sciatic nerve chronic constriction nerve injury surgery was performed as previously described (Bennett and Xie, 1988). An incision (˜1.5 cm in length) was made with a scalpel blade dorsally through skin on the right hind limb, parallel and posterior to femur. Using a small pointed hemostat, the biceps femoris and gluteus superficialis muscles were separated. Using curved blunt forceps, the common sciatic nerve was isolated and exposed. For the mechanical analgesia studies, the whole sciatic nerve was ligated. Using hemostats/forceps and chromic gut (5-0), the nerve was loosely ligated with a square knot; 3 ligatures, 1 mm apart were placed on the nerve. […] Testing occurred approximately 2 weeks post-surgery.
During testing, rats were acclimated to the surface of a suspended wire mesh grid (1 cm×1 cm, with the wire being 0.3 cm in diameter) for 15-20 min. Starting from the smallest, each Von Frey filament was pressed perpendicularly to the plantar surface of the affected (ipsilateral) hind paw until slightly bent and then held for 6 second. If an obvious hind paw withdrawal or a flinching behavior immediately after the withdrawal of the filament was not observed, the next larger filament was used in the same manner. In case of a response, a lower filament was used. This was repeated until six responses were collected.
For all studies, animals were baselined prior to study start to test for allodynia (defined as a paw withdrawal threshold under 5). A subset of animals was tested with gabapentin (150 mg/kg, PO) to ensure at least 50% analgesia. Once it was confirmed animals were ready for study initiation, animals were balanced across groups. All study investigators were blind to treatment conditions. Animals were dosed with 0.1, 1 or 10 mg/kg of test compound via oral gavage (PO), control sets of animals were dosed with gabapentin (150 mg/kg, PO) or vehicle (0.5% Na-CMC in 0.9% sterile saline, PO). Testing occurred 1 h post-dosing with animals retested 24 hrs and 1 week post-dosing. The percent analgesia calculations for each animal were made using the following equation: % analgesia=[(log(x)−y)/((log (z)−y)]*100, where x=the paw withdrawal threshold for the drug-treated animal in grams, y=the average of the log(x) values for the vehicle treated group, and z=the paw withdrawal threshold for naïve animals in grams (historical value of 15 used).
The results are shown in the table below where the percentage of analgesia is measured at 1 hour, 24 hours, and 1 week after compound administration. Since each study had its own gabapentin control group, an example gabapentin control value is shown.

[4] = Sprague-Dawley, plasma, po, 10 mg/kg
[5] = Sprague-Dawley, plasma, po, 10 mg/kg, read-out: Tmax
[6] = Sprague-Dawley, plasma, po, 10 mg/kg, plasma, read-out: Cmax

T2 sequence (Q13224 27-1484, species assumed, other chains not shown): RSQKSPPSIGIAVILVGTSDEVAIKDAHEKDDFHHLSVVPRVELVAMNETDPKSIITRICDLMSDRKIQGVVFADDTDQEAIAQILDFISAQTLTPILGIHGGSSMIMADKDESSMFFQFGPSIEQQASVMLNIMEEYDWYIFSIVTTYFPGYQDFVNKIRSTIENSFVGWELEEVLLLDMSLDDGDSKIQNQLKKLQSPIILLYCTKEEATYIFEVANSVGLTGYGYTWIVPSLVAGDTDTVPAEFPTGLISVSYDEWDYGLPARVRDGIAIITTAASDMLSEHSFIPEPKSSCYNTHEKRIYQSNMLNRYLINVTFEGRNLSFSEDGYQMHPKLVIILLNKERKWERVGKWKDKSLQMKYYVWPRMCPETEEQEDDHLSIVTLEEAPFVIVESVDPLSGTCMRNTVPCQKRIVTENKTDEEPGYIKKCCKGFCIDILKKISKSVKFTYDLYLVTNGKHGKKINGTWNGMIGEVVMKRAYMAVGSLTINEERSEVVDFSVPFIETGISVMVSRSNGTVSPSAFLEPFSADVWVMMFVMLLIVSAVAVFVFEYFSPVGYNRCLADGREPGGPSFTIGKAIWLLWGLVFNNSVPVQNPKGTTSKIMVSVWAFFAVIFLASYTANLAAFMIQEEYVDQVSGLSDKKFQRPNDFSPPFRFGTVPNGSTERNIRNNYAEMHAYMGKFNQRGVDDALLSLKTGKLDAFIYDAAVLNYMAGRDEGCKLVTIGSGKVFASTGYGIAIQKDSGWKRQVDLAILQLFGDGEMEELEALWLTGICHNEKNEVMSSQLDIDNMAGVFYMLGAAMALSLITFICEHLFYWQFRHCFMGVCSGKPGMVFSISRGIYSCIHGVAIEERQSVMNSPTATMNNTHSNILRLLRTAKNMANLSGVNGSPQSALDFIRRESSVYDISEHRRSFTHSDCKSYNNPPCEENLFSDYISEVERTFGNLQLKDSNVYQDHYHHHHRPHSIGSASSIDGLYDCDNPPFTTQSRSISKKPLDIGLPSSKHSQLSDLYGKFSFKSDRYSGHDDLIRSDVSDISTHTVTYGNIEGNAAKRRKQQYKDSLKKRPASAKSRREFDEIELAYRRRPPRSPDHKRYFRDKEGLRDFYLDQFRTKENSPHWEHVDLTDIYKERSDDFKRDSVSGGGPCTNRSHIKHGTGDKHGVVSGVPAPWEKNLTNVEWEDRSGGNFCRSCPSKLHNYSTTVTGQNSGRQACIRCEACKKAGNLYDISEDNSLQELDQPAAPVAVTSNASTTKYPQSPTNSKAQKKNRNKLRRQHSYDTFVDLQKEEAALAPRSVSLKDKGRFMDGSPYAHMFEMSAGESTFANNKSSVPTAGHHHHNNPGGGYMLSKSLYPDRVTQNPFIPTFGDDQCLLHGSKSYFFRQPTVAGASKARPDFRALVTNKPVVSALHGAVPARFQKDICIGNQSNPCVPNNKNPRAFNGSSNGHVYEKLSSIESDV
T1 sequence (Q12879 23-1464, species assumed, other chains not shown): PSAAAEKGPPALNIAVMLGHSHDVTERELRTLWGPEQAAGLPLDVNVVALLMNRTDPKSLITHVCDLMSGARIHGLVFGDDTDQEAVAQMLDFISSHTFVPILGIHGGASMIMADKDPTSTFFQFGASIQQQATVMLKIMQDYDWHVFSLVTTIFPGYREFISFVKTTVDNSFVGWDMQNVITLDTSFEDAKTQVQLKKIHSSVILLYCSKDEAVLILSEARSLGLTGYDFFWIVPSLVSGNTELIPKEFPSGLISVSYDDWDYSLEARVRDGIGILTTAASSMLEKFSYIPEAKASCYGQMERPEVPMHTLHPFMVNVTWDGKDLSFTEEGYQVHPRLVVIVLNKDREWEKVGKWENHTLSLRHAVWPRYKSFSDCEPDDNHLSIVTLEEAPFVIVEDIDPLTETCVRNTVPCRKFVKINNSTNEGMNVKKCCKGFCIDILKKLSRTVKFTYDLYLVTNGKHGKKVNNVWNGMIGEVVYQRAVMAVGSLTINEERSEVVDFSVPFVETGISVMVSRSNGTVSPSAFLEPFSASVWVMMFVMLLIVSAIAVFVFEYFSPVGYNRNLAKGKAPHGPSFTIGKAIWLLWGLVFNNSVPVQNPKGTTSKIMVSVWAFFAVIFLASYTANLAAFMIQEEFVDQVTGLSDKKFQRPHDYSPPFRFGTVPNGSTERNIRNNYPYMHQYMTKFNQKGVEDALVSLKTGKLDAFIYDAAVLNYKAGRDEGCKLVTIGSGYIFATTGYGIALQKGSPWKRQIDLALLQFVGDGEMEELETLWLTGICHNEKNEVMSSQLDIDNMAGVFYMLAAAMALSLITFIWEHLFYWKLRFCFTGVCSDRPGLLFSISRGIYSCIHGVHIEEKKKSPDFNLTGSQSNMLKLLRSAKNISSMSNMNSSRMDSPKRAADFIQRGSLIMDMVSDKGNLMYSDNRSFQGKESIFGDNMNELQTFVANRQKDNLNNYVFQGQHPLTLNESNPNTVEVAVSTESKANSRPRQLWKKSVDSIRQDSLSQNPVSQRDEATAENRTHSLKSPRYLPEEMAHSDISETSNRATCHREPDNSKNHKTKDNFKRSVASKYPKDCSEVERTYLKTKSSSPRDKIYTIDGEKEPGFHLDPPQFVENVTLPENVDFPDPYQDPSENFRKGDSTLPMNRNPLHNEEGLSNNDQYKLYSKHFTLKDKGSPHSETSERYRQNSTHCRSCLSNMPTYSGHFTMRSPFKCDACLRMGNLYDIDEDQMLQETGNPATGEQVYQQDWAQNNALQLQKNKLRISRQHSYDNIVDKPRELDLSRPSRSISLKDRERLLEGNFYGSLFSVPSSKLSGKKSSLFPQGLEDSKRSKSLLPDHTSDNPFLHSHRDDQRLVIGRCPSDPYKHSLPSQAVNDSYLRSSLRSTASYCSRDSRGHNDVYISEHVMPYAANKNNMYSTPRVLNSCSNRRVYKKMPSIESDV

Which “A: % maximal [3H]MK-801 binding relative to 1 mM glycine” value (NMDAR2A) does the source give for C[C@@H](O)[C@H](NC1CCC2(CC1)CNC2=O)C(N)=O (single isomer, unassigned) [AQ] here?
The value was “+ (<100%=+)”.

What about the EC50 (NMDAR2A) of the same compound?
The EC50 was at least 1 nM.

And the “A: % maximal [3H]MK-801 binding relative to 1 mM glycine” value (NMDAR2B)?
Its value is “+ (<100%=+)”.

And the EC50 (NMDAR2B)?
Its EC50 is under 1 nM.

What about the AUC(0-t) (IV pharmacokinetics; 2 mg/kg) of the same compound?
Its AUC(0-t) is 2290 ng·h/mL.

And the half-life (IV pharmacokinetics; 2 mg/kg)?
Its half-life is 3.84 h.

What about the C0 (IV pharmacokinetics; 2 mg/kg) of the same compound?
The C0 was 3990 ng/mL.

What about the Vd (IV pharmacokinetics; 2 mg/kg) of the same compound?
The Vd was 1.22 L/kg.

And the CI (IV pharmacokinetics; 2 mg/kg)?
Its CI is 14.64 mL/min/kg.

What about the “Max Effect (mean number of 50 kHz USVs per 15 seconds)” value (rats) of the same compound?
The value was “** (**: 11-16.9)”.

What about the “% F” value [1] of the same compound?
The value was 16%.

And the “CSF Cmax” value [1]?
Its value is 65.84 ng/mL.

What about the “Brain Cmax” value ([1]; brain) of the same compound?
Its value is 29.91 ng/mL.

What about the Tmax [1] of the same compound?
Its Tmax is 1 h.

What about the AUClast ([1]; plasma) of the same compound?
The AUClast was 1805.63 ng·h/mL.

And the Cmax ([1]; plasma)?
Its Cmax is 499.27 ng/mL.

With O=C1NCC12CCCCC2 [Compound AB, 2-azaspiro[3.5]nonan-1-one] as the compound, how does the EC50 (NMDAR2A) read?
Its EC50 is at least 1 nM.

And the Emax (NMDAR2A)?
Its Emax is under 100%.

And the EC50 (NMDAR2B)?
The EC50 was under 1 nM.

And the Emax (NMDAR2B)?
The Emax was under 100%.

And the AUC(0-t) (IV pharmacokinetics; 2 mg/kg)?
The AUC(0-t) was 2650 ng·h/mL.

And the half-life (IV pharmacokinetics; 2 mg/kg)?
Its half-life is 3.42 h.

What about the C0 (IV pharmacokinetics; 2 mg/kg) of the same compound?
Its C0 is 2050 ng/mL.

What about the Vd (IV pharmacokinetics; 2 mg/kg) of the same compound?
Its Vd is 1.13 L/kg.

And the CI (IV pharmacokinetics)?
The CI was 16.1 mL/min/kg.

And the “% reduction in float time” value (Sprague Dawley rats [2]; 1 h post-dose)?
The value was 73.2%.

What about the Significance vs. vehicle (Sprague Dawley rats [2]; 1 h post-dose) of the same compound?
The Significance vs. vehicle was “Yes (statistically significant (p<=0.05) from vehicle at dose level shown)”.

And the “% reduction in float time” value (Sprague Dawley rats [2]; 24 h post-dose)?
Its value is 79.90%.

What about the Significance vs. vehicle (Sprague Dawley rats [2]; 24 h post-dose) of the same compound?
The Significance vs. vehicle was “Yes (statistically significant (p<=0.05) from vehicle at dose level shown)”.

And the AUC(0-t) [1, 4]?
The AUC(0-t) was 11600 ng·h/mL.

What about the bioavailability [1, 4] of the same compound?
Its bioavailability is 88%.

What about the Tmax [1, 5] of the same compound?
Its Tmax is 0.42 h.

What about the Cmax [1, 6] of the same compound?
Its Cmax is 7690 ng/mL.

What does the source list for C[C@@H](O)[C@@H](C(N)=O)N1CC2(CCC(F)(F)CC2)C1=O [Compound AO, (2S,3R)-2-(7,7-difluoro-1-oxo-2-azaspiro[3.5]nonan-2-yl)-3-hydroxybutanamide]?
Emax (NMDAR2A): 0%; EC50 (NMDAR2B): < 1 nM; Emax (NMDAR2B): < 100%; % analgesia (Sprague Dawley rats [3]; 1 wk): 18.2%; % analgesia (Sprague Dawley rats [3]; 1 h): 23.7%; % analgesia (Sprague Dawley rats [3]; 24 h): 7.5%; Max Effect (mean number of 50 kHz USVs per 15 seconds) (rats): * (*: 6-10.9); Tmax [1, 5]: 1 h; Cmax [1, 6]: 7310 ng/mL; CSF Cmax [1]: 1676.3 ng/mL
